Measurements from patent publication US8481553B2, “Antimetastatic compounds” (Brigham Young University, priority 2010, dated 2013).

What follows are compounds tested on MDCK cells (assay: HGF-induced epithelial-mesenchymal transition / migration of MDCK cells on transwell filters (crystal violet densitometry)). Conditions: Canis lupus familiaris, MDCK; test compound 10 μM, then HGF, 24 hours; percentage value like the untreated controls (unstimulated cells = maximal effect, HGF treated cells without compound = nil effect).
Format: cell-based
Description: MDCK cells were seeded at confluency into the wells of a transwell filter in DMEM with 10% fetal bovine serum. Cells were cultured for 24 hours. Test compounds, dissolved in DMSO, were added to each test well to a 10 μM final concentration, and then hepatocyte growth factor (HGF) was then added. The MDCK cells were cultured for 24 hours. Concurrently, controls treated with and without HGF and with no test compounds were also prepared.
After post-HGF addition culturing, transwell filters were prepared by repeated washing using ice cold PBS. The cells were then fixed with paraformaldehyde (3.7%) on ice for 15 minutes to the filters. After fixation, the transwell filters were washed repeatedly with PBS followed by staining with crystal violet for 15 minutes. The transwell filters were washed again with distilled water.
The upper surface of the transwell filters were swabbed using a cotton-tipped probe. The filters were photographed using a gel documentation system. Densitometry measurements were made on the test samples and compared with control samples.

| SMILES | inhibition at 10 µM [%] |
| --- | --- |
| COc1cc(Cl)cc(/C=C/c2ccc3cccc(O)c3n2)c1OC [Compound B-28] | 100 |
| COc1cc(/C=C/c2ccc3cccc(OC(C)=O)c3n2)ccc1O [Compound B-29] | 94.2 |
| Oc1cccc2ccc(/C=C/c3ccc4c(c3)OCO4)nc12 [Compound B-30] | 94.4 |
| CC(C)Oc1ccc(/C=C/c2ccc3cccc(O)c3n2)cc1 [Compound B-31] | 100 |
| COc1cc(/C=C/c2ccc3cccc(O)c3n2)ccc1OCc1ccccc1 [Compound B-32] | 91.8 |
| COc1ccc(/C=C/c2ccc3cccc(O)c3n2)cc1C [Compound B-33] | 90.7 |
| COc1cccc(/C=C/c2ccc3cccc(O)c3n2)c1 [Compound B-34] | 51.8 |
| COc1cc(/C=C/c2ccc3cccc(O)c3n2)cc(OC)c1OC [Compound B-35] | < 5 |
| COc1cc(/C=C/c2ccc3cccc(O)c3n2)cc(OC)c1O [Compound B-36] | < 5 |
